Test results published in ChEMBL document CHEMBL1909046, “DrugMatrix in vitro pharmacology data”.

What was measured:
Substance-K receptor = target: T1, Substance-K receptor (Homo sapiens, UniProt P21452); assay type: cell membranes, CHO, Membrane; settings: cho; note: in other assays of this panel Not Active means under 50% inhibition at 10 µM
T1 sequence (P21452 whole entry): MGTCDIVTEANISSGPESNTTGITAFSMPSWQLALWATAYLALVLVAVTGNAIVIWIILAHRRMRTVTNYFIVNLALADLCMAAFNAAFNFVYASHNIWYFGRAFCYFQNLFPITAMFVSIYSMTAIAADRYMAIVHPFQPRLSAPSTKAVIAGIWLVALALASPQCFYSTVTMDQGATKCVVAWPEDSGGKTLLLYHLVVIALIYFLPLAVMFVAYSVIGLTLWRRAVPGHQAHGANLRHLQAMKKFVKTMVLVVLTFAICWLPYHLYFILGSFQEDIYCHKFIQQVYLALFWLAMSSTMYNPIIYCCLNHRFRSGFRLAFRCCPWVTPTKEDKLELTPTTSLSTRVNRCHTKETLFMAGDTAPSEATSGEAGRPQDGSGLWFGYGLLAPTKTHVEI

[1] = DRUGMATRIX: Glutamate, NMDA, Phencyclidine radioligand binding (ligand: [3H] TCP); assay type: cell membranes, Rattus norvegicus, Wistar, Cerebral cortex, Membrane; settings: Not Active = under 50% inhibition at 10 µM
[2] = DRUGMATRIX: Interleukin IL-1 radioligand binding (ligand: [125I] interleukin 1beta); assay type: cell membranes, Membrane; settings: nih3t3; Not Active = under 50% inhibition at 10 µM
Melanocortin receptor 3 = Melanocortin receptor 3 (Homo sapiens, UniProt P41968); assay type: cell membranes, HEK293, Membrane; settings: hek293; note: in other assays of this panel Not Active means under 50% inhibition at 10 µM
[3] = target: T2, Muscarinic acetylcholine receptor M4 (Homo sapiens, UniProt P08173); assay type: cell membranes, CHO-K1, Membrane; settings: cho-k1; note: in other assays of this panel Not Active means under 50% inhibition at 10 µM
T2 sequence (P08173 whole entry): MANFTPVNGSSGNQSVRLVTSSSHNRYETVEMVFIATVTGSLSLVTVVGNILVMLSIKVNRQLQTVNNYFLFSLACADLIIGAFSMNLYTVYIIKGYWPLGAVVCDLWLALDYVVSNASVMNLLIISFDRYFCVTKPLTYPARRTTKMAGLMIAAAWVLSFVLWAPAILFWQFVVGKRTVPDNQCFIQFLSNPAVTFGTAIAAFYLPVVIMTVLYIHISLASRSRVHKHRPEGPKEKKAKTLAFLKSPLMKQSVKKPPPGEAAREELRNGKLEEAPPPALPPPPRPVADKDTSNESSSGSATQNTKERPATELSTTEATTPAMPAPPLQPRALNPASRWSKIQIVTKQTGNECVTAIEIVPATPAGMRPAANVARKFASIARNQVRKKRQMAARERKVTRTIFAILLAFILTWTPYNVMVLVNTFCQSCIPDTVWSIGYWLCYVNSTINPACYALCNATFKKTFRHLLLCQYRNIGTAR

[4] = target: T3, Neuropeptide Y receptor type 1 (Homo sapiens, UniProt P25929); assay type: cell membranes, Membrane; settings: sk-n-mc; note: in other assays of this panel Not Active means under 50% inhibition at 10 µM
T3 sequence (P25929 whole entry): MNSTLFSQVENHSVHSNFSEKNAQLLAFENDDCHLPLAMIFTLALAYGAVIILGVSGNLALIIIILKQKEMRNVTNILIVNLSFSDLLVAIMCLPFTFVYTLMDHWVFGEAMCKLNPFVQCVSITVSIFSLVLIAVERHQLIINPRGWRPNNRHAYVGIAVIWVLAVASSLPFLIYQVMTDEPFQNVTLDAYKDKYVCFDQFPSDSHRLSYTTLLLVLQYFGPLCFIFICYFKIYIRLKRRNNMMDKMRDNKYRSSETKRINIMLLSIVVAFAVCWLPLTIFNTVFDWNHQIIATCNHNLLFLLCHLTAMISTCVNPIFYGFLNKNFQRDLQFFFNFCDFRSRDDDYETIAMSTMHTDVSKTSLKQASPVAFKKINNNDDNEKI

[5] = target: Tyrosine-protein kinase Lck (Homo sapiens, UniProt P06239); test: DRUGMATRIX: Protein Tyrosine Kinase, LCK enzyme inhibition (substrate: Poly(Glu:Tyr)); assay type: cell-based, Insect cells; settings: insect cells; Not Active = under 50% inhibition at 10 µM
Cytochrome P450 1A2 = target: T4, Cytochrome P450 1A2 (Homo sapiens, UniProt P05177); settings: bti-tn-5b1-4; note: in other assays of this panel Not Active means under 50% inhibition at 10 µM
T4 sequence (P05177 whole entry): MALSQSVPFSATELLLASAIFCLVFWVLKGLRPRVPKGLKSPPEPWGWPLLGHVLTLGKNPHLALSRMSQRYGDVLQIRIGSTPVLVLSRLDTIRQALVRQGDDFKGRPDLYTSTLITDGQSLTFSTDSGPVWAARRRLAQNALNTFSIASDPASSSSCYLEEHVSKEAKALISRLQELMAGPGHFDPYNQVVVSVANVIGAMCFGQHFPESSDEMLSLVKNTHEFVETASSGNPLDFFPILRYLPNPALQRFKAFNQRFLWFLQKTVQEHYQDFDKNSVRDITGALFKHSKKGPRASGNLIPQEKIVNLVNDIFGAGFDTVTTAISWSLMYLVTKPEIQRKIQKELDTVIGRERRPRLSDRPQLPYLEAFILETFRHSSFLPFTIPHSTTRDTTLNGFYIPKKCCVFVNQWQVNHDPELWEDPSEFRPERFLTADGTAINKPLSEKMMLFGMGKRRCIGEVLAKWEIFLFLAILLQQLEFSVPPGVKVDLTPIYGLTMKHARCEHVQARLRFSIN

Chain of Melanocortin receptor 3 (P41968 whole entry): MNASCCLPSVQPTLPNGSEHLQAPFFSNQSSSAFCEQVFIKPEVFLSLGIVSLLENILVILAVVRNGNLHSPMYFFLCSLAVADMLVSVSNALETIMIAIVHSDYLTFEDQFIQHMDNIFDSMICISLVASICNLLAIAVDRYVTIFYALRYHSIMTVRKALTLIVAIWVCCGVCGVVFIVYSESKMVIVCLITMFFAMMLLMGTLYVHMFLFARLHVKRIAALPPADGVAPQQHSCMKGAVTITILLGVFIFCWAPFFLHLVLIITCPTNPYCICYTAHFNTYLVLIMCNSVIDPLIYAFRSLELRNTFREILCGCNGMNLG
Chain of Tyrosine-protein kinase Lck (P06239 whole entry): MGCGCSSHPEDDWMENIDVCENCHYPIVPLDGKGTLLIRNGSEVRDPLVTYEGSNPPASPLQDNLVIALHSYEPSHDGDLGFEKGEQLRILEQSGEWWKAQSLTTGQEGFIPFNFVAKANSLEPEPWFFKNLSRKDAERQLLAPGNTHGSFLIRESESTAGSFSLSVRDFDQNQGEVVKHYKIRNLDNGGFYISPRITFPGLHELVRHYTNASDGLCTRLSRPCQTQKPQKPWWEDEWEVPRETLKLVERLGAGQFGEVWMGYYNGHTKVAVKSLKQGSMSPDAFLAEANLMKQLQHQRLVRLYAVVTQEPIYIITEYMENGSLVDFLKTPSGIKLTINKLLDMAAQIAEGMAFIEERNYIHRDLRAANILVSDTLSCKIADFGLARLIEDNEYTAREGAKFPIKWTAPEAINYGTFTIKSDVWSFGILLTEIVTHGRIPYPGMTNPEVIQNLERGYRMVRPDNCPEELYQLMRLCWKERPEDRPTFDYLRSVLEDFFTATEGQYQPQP

C[C@H](C(=O)O)c1ccc2oc(-c3ccc(F)cc3)nc2c1 [FLUNOXAPROFEN]
Not Active: IC50 (Substance-K receptor) | IC50 [1] | Ki [1] | IC50 [2] | Ki [2] | IC50 (Melanocortin receptor 3) | IC50 [3] | IC50 [4] | IC50 [5] | IC50 (Cytochrome P450 1A2) | Ki (Cytochrome P450 1A2)

CCN1CCN(c2cc3c(cc2F)c(=O)c(C(=O)O)cn3C2CC2)CC1 [ENROFLOXACIN]
Not Active: IC50 (Substance-K receptor) | IC50 [1] | Ki [1] | IC50 [2] | Ki [2] | IC50 (Melanocortin receptor 3) | IC50 [3] | IC50 [4] | IC50 [5] | IC50 (Cytochrome P450 1A2) | Ki (Cytochrome P450 1A2)

C[C@]12CC[C@@H](O)C[C@@H]1CC[C@@H]1[C@@H]2CC[C@]2(C)C(=O)CC[C@@H]12 [ANDROSTERONE]
Not Active: IC50 (Substance-K receptor) | IC50 [1] | Ki [1] | IC50 [2] | Ki [2] | IC50 (Melanocortin receptor 3) | IC50 [3] | IC50 [4] | IC50 [5] | IC50 (Cytochrome P450 1A2) | Ki (Cytochrome P450 1A2)

O=C(NCCN1CCOCC1)c1ccc(Cl)cc1 [MOCLOBEMIDE]
Not Active: IC50 (Substance-K receptor) | IC50 [1] | Ki [1] | IC50 [2] | Ki [2] | IC50 (Melanocortin receptor 3) | IC50 [3] | IC50 [4] | IC50 [5] | IC50 (Cytochrome P450 1A2) | Ki (Cytochrome P450 1A2)

NC(=O)CN1CCCC1=O
Not Active: IC50 (Substance-K receptor) | IC50 [1] | Ki [1] | IC50 [2] | Ki [2] | IC50 (Melanocortin receptor 3) | IC50 [3] | IC50 [4] | IC50 [5] | IC50 (Cytochrome P450 1A2) | Ki (Cytochrome P450 1A2)

Oc1ccccc1 [PHENOL]
Not Active: IC50 (Substance-K receptor) | IC50 [1] | Ki [1] | IC50 [2] | Ki [2] | IC50 (Melanocortin receptor 3) | IC50 [3] | IC50 [4] | IC50 [5] | IC50 (Cytochrome P450 1A2) | Ki (Cytochrome P450 1A2)

CCO [ALCOHOL]
Not Active: IC50 (Substance-K receptor) | IC50 [1] | Ki [1] | IC50 [2] | Ki [2] | IC50 (Melanocortin receptor 3) | IC50 [3] | IC50 [4] | IC50 [5] | IC50 (Cytochrome P450 1A2) | Ki (Cytochrome P450 1A2)

COc1ccc(Cl)cc1C(=O)NCCc1ccc(S(=O)(=O)NC(=O)NC2CCCCC2)cc1 [GLYBURIDE]
Not Active: IC50 (Substance-K receptor) | IC50 [1] | Ki [1] | IC50 [2] | Ki [2] | IC50 (Melanocortin receptor 3) | IC50 [3] | IC50 [4] | IC50 [5] | IC50 (Cytochrome P450 1A2) | Ki (Cytochrome P450 1A2)

OC[C@H]1O[C@@H]2O[C@H]3[C@H](O)[C@@H](O)[C@@H](O[C@H]4[C@H](O)[C@@H](O)[C@@H](O[C@H]5[C@H](O)[C@@H](O)[C@@H](O[C@H]6[C@H](O)[C@@H](O)[C@@H](O[C@H]7[C@H](O)[C@@H](O)[C@@H](O[C@H]8[C@H](O)[C@@H](O)[C@@H](O[C@H]1[C@H](O)[C@H]2O)O[C@@H]8CO)O[C@@H]7CO)O[C@@H]6CO)O[C@@H]5CO)O[C@@H]4CO)O[C@@H]3CO [BETADEX]
Not Active: IC50 (Substance-K receptor) | IC50 [1] | Ki [1] | IC50 [2] | Ki [2] | IC50 (Melanocortin receptor 3) | IC50 [3] | IC50 [4] | IC50 [5] | IC50 (Cytochrome P450 1A2) | Ki (Cytochrome P450 1A2)

NC(N)=Nc1nc(CSCCC(N)=NS(N)(=O)=O)cs1 [FAMOTIDINE]
Not Active: IC50 (Substance-K receptor) | IC50 [1] | Ki [1] | IC50 [2] | Ki [2] | IC50 (Melanocortin receptor 3) | IC50 [3] | IC50 [4] | IC50 [5] | IC50 (Cytochrome P450 1A2) | Ki (Cytochrome P450 1A2)
